From patent EP4678644A1, “SUBSTITUTED DIHYDROTHIENOPYRIMIDINE COMPOUND, PREPARATION METHOD THEREFOR, AND USE THEREOF” (Shanghai Yidi Biotechnology Co., Ltd., priority 2023, dated 2024)

Experiments:
[1] = biological target: T1, PDE4B2 (Homo sapiens, UniProt Q07343); test: PDE4B2 enzyme experiment (AMP-glo, cAMP substrate); format: biochemical
T1 construct: expressed in transfected cells; host or cells: Flp-In-293 (Flpin-293-PDE4B2 [sic])

[2] = biological target: PDE4D2 (Homo sapiens, UniProt Q08499); test: PDE4D2 enzyme experiment (AMP-glo, cAMP substrate); format: biochemical; details: read-out: PDE4D2 IC50 Binding
Text: Inhibition rate % ^= (1 - (RLUpositive control - RLUcompound)/(RLUpositive control - RLUnegative control)) * 100.

[3] = biological target: T1, PDE4B2; test: PDE4B2 cell experiment (cAMP, Eu-cAMP tracer / Ulight-anti-cAMP); format: cell-based; details: Flpin-293-PDE4B2 cells; for Cell Inhibition% @10 nM / inhibition at 0.01 µM: 10 nM; for Cell Inhibition% @100 nM / inhibition at 0.1 µM: 100 nM; for IC50: Foskolin

PDE4D2, sequence (Q08499 303-809 limits assumed): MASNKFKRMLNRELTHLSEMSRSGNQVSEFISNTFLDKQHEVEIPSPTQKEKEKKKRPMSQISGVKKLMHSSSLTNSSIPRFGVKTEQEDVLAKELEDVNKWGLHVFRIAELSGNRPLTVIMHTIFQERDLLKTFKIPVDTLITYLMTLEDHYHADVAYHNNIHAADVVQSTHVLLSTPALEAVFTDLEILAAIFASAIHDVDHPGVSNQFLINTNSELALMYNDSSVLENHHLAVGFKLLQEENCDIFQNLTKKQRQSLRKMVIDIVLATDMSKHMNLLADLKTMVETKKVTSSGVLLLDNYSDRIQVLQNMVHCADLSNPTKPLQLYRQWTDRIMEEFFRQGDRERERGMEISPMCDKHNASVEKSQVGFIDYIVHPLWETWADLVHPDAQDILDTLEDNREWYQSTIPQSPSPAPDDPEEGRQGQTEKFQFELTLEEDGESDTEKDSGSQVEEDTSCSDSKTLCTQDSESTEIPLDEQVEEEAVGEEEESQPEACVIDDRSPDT
T1 sequence (Q07343 1-564 isoform Q07343-2): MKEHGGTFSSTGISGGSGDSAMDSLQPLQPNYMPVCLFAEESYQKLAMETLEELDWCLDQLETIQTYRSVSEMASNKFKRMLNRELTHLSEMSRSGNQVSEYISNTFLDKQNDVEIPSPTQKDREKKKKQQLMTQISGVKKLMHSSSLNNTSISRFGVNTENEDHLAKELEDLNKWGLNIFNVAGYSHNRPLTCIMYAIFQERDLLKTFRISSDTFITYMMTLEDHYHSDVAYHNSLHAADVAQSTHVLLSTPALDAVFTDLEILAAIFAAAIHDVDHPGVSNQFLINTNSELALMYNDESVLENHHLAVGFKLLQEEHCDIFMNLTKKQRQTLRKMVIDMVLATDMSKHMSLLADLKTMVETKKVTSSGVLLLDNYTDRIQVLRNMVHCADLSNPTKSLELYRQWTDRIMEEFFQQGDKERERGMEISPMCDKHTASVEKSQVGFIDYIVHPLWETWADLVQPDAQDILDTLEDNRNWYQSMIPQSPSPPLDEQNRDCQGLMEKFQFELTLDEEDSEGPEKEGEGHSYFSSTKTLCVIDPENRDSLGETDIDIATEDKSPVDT

IC50 [1] [nM]	IC50 [2] [nM]	Cell Inhibition% @10 nM [3] [%]	Cell Inhibition% @100 nM [3] [%]	SMILES	also measured
0.621	1.07	47.82	97.34	[O-][S+]1CCc2nc(N3CC[C@@H]4c5ccccc5OC[C@H]4C3)nc(NC3(CO)CCC3)c21 (stereo partly drawn) [Compound 83]	Cell Inhibition% @1 nM ([3]; 1 nM): 5.79%
0.476	0.77			Cn1c(=O)oc2cc3c(cc21)CCN(c1nc2c(c(NC4(CO)CCC4)n1)[S@+]([O-])CC2)C3 [Compound 68, (R)-6-(4-((1-(hydroxymethyl)cyclobutyl)amino)-5-oxido-6,7-dihydrothieno[3,2-d]pyrimidin-2-yl)-1-methyl-5,6,7,8-tetrahydrooxazolo[4,5-g]isoquinolin-2(1H)-one]	inhibition at 0.001 µM ([3]; 1 nM): 8.99%; inhibition at 0.01 µM [3]: 56.3%; inhibition at 0.1 µM [3]: 96.1%
0.655	1.96			COc1nc2cc(Cl)ccc2c2c1CN(c1nc3c(c(NC4(CO)CCC4)n1)[S+]([O-])CC3)CC2 (stereo not drawn) [Compound 101]	IC50 [3]: 13.2 nM
0.488	0.826	81.81	99.55	[O-][S+]1CCc2nc(N3CCc4cc(C(F)(F)F)ccc4C3)nc(NC3(CO)CCC3)c21 (stereo not drawn) [Compound 52]	
0.77	2.51			[O-][S+]1CCc2nc(N3CCc4cc(Cl)c(Cl)cc4C3)nc(NC3(CO)CCC3)c21 (stereo not drawn) [Compound 26]	IC50 [3]: 19.7 nM
0.97	1.46			COc1ccc2c(c1)CCN(c1nc3c(c(NC4(CO)CCC4)n1)[S+]([O-])CC3)C2 (stereo not drawn) [Compound 22]	IC50 [3]: 14.8 nM
10.7	17.3			Cc1nc2c(s1)CN(c1nc3c(c(NC4(CO)CCC4)n1)[S+]([O-])CC3)CC2 (stereo not drawn) [Compound 16]	IC50 [3]: 78 nM
0.426	1.15	47.68	97.30	[O-][S+]1CCc2nc(N3CCc4c(ncc5cc(Cl)ccc45)C3)nc(NC3(CO)CCC3)c21 (stereo not drawn) [Compound 100]	Cell Inhibition% @1 nM ([3]; 1 nM): 6.00%
1.32	3.89			[O-][S+]1CCc2nc(N3CCc4cc5c(cc4C3)OCO5)nc(NC3(CO)CCC3)c21 (stereo not drawn) [Compound 35]	IC50 [3]: 46.1 nM
0.05	0.049	99.37	100.73	Cn1ccc(-c2ccc3c(c2)CCN(c2nc4c(c(NC5(CO)CCC5)n2)[S+]([O-])CC4)C3)n1 (stereo not drawn) [Compound 77]	Cell Inhibition% @1 nM ([3]; 1 nM): 61.02%
20.4	28.6			[O-][S+]1CCc2nc(N3CCc4ncsc4C3)nc(NC3(CO)CCC3)c21 (stereo not drawn) [Compound 15]	IC50 [3]: 150 nM
0.338	0.873	38.89	95.41	[O-][S+]1CCc2nc(N3CCc4c(c(NCCO)nc5cc(Cl)ccc45)C3)nc(NC3(CO)CCC3)c21 (stereo not drawn) [Compound 103]	Cell Inhibition% @1 nM ([3]; 1 nM): 2.83%
1.41	4.17	37.35	95.13	[O-][S+]1CCc2nc(N3CC[C@@H]4c5cc(Cl)ccc5OC[C@H]4C3)nc(NC3(CO)CCC3)c21 (stereo partly drawn) [Compound 108]	Cell Inhibition% @1 nM ([3]; 1 nM): -0.82%
0.161	0.776	43.69	98.17	[O-][S+]1CCc2nc(N3CCc4cc(N5CCCC5)ccc4C3)nc(NC3(CO)CCC3)c21 (stereo not drawn) [Compound 92]	Cell Inhibition% @1 nM ([3]; 1 nM): 3.35%
0.332	0.655	47.36	96.42	[O-][S+]1CCc2nc(N3CCc4cc(I)ccc4C3)nc(NC3(CO)CCC3)c21 (stereo not drawn) [Compound 67]	Cell Inhibition% @1 nM ([3]; 1 nM): 14.20%
	1.88			[O-][S@+]1CCc2nc(N3CCc4nc(N5CCCC5)cnc4C3)nc(NC3(CO)CCC3)c21 [Compound 218, (R)-4-((1-(hydroxymethyl)cyclobutyl)amino)-2-(2-(pyrrolidin-1-yl)-7,8-dihydropyrido[3,4-b]pyrazin-6(5H)-yl)-6,7-dihydrothieno[3,2-d]pyrimidine 5-oxide]	
	3.46			[O-][S@+]1CCc2nc(N3CCc4nc(N5CCC5)sc4C3)nc(NC3(CO)CCC3)c21 [Compound 64, (R)-2-(2-(azetidin-1-yl)-6,7-dihydrothiazolo[5,4-c]pyridin-5(4H)-yl)-4-((1-(hydroxymethyl)cyclobutyl)amino)-6,7dihydrothieno[3,2-d]pyrimidine 5-oxide]	
	1.13			[O-][S@+]1CCc2nc(N3CCc4cc(C5CC5)ccc4C3)nc(NC3(CO)CCC3)c21 [Compound 66, (R)-2-(6-cyclopropyl-3,4-dihydroisoquinolin-2(1H)-yl)-4-((1-(hydroxymethyl)cyclobutyl)amino)-6,7-dihydrothieno[3,2-d]pyrimidine 5-oxide]	
	3.38			[O-][S@+]1CCc2nc(N3CCc4nc(N5CCCC5)ccc4C3)nc(NC3(CO)CCC3)c21 [Compound 135, (R)-4-((1-(hydroxymethyl)cyclobutyl)amino)-2-(2-(pyrrolidin-1-yl)-7,8-dihydro-1,6-naphthyridin-6(5H)-yl)-6,7-dihydrothieno[3,2-d]pyrimidine 5-oxide]	
	0.56			O=C1OCCN1c1ccc2c(c1)CCN(c1nc3c(c(NC4(CO)CCC4)n1)[S@+]([O-])CC3)C2 [Compound 80, (R)-3-(2-(4-((1-(hydroxymethyl)cyclobutyl)amino)-5-oxido-6,7-dihydrothieno[3,2-d]pyrimidin-2-yl)-1,2,3,4-tetrahydroisoquinolin-6-yl)oxazolidin-2-one]	
	2.94			Cn1ncc2c3c(cnc21)CN(c1nc2c(c(NC4(CO)CCC4)n1)[S@+]([O-])CC2)CC3 [Compound 104, (R)-4-((1-(hydroxymethyl)cyclobutyl)amino)-2-(3-methyl-3,6,8,9-tetrahydro-7H-pyrazolo[3,4-c][2,7]naphthyridin-7-yl)-6,7-dihydrothieno[3,2-d]pyrimidine 5-oxide]	
	4.81			[O-][S@+]1CCc2nc(N3CCc4cc5ncoc5cc4C3)nc(NC3(CO)CCC3)c21 [Compound 49, (R)-2-(7,8-dihydrooxazolo[4,5-g]isoquinolin-6(5H)-yl)-4-((1-(hydroxymethyl)cyclobutyl)amino)-6,7-dihydrothieno[3,2-d]pyrimidine 5-oxide]	

SMILES	IC50 [1] [nM]	IC50 [2] [nM]	Cell Inhibition% @10 nM [3] [%]	Cell Inhibition% @100 nM [3] [%]	also measured
[O-][S@+]1CCc2nc(N3CCc4sc(I)cc4C3)nc(NC3(CO)CCC3)c21 [Compound 56, (R)-4-((1-(hydroxymethyl)cyclobutyl)amino)-2-(2-iodo-6,7-dihydrothieno[3,2-c]pyridin-5(4H)-yl)-6,7-dihydrothieno[2,2-d]pyrimidine 5-oxide]	0.998	1.95			inhibition at 0.01 µM [3]: 40.6%; inhibition at 0.1 µM [3]: 90.2%
[O-][S@+]1CCc2nc(N3CC[C@@H]4c5ccc(Cl)cc5OC[C@H]4C3)nc(NC3(CO)CCC3)c21 [Compound 14, (R)-2-((4aR,10bS)-8-chloro-1,4a,5,10b-tetrahydro-2H-chromeno[3,4-c]pyridin-3(4H)-yl)-4-((1-(hydroxymethyl)cyclobutyl)amino)-6,7-dihydrothieno[3,2-d]pyrimidine 5-oxide]	0.21	1.08			IC50 [3]: 16.5 nM
C[C@@H]1c2ccc(Cl)cc2CCN1c1nc2c(c(NC3(CO)CCC3)n1)[S@+]([O-])CC2 [Compound 29]	0.54	1.79			
